Measured values taken from US20260008758A1, “LINEAR DIPEPTIDYL PEPTIDASE 1 INHIBITORS AND USES THEREOF” (Insmed Incorporated, priority 2024, published 2026).

Assays:
[1] = molecular target: human DPP1 enzyme (Homo sapiens (Human), UniProt P53634); test: Human DPP1 enzyme single-point percent inhibition testing (HL-60 lysate, H-Gly-Arg-AMC substrate); type: biochemical; conditions: read-out: human DPP1 enzyme % inhibition @ 10 nM, 10 nM compound, 400 μM H-Gly-Arg-AMC, 10 min pre-incubation at 37° C.
Protocol: A crude lysate of HL-60 cells (ATCC; Manassas, VA) was used as a source of human DPP1 enzyme in the assay. Lysate was prepared in 1% Triton X-100 in PBS at a concentration of 20,000 live cells per […] of lysis buffer and was centrifuged at 16,000 rcf for 10 minutes at 4° C., after which supernatant was collected and flash-frozen in liquid nitrogen. Test articles were applied to human DPP1 enzyme in Assay Buffer (25 mM MES pH 6.0, 50 mM NaCl, 5 mM DTT) in a total reaction volume of 125 μL. 25 μL of compound diluted to 50 nM in Assay Buffer plus 5% DMSO was first added to 50 μL of HL-60 lysate diluted to contain a DPP1 enzyme concentration of roughly 1 ng/μL and allowed to pre-incubate for 10 minutes at 37° C. after which 50 μL of 1000 μM H-Gly-Arg-AMC substrate (Bachem; St. Torrance, CA) was added, giving final compound concentration of 10 nM, a final substrate concentration of 400 μM and a final DMSO concentration of 1%. Substrate cleavage was measured for 90 minutes at 37° C., with fluorescence at Excitation/Emission 350/450 nm measured every 5 minutes. DPP1 concentration was interpolated based on its activity relative to a standard curve of activated human recombinant DPP1 enzyme. Percent inhibition at 10 nM was calculated for each test article based on remaining DPP1 activity compared to enzyme activity in wells that received only vehicle control.

[2] = molecular target: DPP1 in HL-60 cells (Homo sapiens (Human), UniProt P53634); test: DPP1 cell single-point percent inhibition testing (HL-60 cells, H-Gly-Phe-AFC substrate); type: cell-based; conditions: read-out: DPP1 cell % inhibition @ 5 nM, 5 nM compound, 100 μM H-Gly-Phe-AFC, 60 min pre-incubation at 37° C.
Protocol: HL-60 cells (ATCC; Manassas, VA) were maintained in RPMI-1640 supplemented with 20% heat-inactivated FBS and 1× Antibiotic Antimycotic (Cytiva; Marlborough, MA). Media was changed every three to four days and cells were not allowed to exceed 1×10^6 cells per mL. Prior to assay, cells were collected by centrifugation at 500 rcf for 3 minutes, resuspended in RPMI (with no additional supplements) and counted. Cells were diluted in RPMI to a concentration of 5×10^5 live cells per mL and transferred to black 96-well plates for assay, 60 μL per well. Test articles were diluted to 25 nM in RPMI plus 0.5% DMSO, and 20 μL was added to each assay well. Compound was allowed to pre-incubate with cells with gentle shaking at 100 rpm for 60 minutes at 37° C. in a cell culture incubator maintained at 5% CO2, after which 20 μL of 500 μM H-Gly-Phe-AFC cell-permeable substrate (MP Biomedicals; Solon, OH) in RPMI was added to each well, giving final compound concentration of 5 nM, a final substrate concentration of 100 μM and a final DMSO concentration of 0.1%. Plates were returned to the incubator with shaking at 100 rpm for 30 minutes, after which fluorescence was measured at Excitation/Emission 400/505 nm. Percent Inhibition was calculated from RFU values by first subtracting background values (wells in which RPMI was substituted for cells) from each well, and then subtracting background-subtracted RFU derived from wells that received a final concentration of 10 μM brensocatib. This value represents the non-specific substrate cleavage from the HL-60 cells, and the remaining RFU should theoretically be solely the contribution of DPP1 enzyme activity. The final percent inhibition value was calculated for each test article based on remaining RFU compared to RFU from wells that received only vehicle control.

Chain of human DPP1 enzyme (P53634 25-134): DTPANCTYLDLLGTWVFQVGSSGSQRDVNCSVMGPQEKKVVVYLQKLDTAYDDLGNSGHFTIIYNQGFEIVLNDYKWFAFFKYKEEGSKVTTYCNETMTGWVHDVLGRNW
Chain of human DPP1 enzyme (P53634 231-394): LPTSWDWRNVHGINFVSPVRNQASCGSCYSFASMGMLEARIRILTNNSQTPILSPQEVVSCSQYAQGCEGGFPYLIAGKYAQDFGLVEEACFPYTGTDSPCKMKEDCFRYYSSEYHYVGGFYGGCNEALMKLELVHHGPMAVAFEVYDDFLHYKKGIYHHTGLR
Chain of human DPP1 enzyme (P53634 395-463): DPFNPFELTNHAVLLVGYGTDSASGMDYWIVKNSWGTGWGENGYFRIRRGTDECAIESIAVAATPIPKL
Chain of DPP1 in HL-60 cells (P53634 25-134): as the sequence (P53634 25-134) above
Chain of DPP1 in HL-60 cells (P53634 231-394): as the sequence (P53634 231-394) above
Chain of DPP1 in HL-60 cells (P53634 395-463): as the sequence (P53634 395-463) above

| Structure (SMILES) | inhibition at 0.01 µM [1] | inhibition at 0.005 µM [2] |
| --- | --- | --- |
| COCCN(C)CCn1c(=O)oc2ccc(-c3ccc(C[C@@H](C#N)NC(=O)[C@@H](O)CN(C)C)c(F)c3)cc21 [Compound 368] | ≥ 66.7% | ≤ 76.5% |
| CN(C)C[C@H](O)C(=O)N[C@H](C#N)Cc1ccc(-c2ccc3cnn(C)c3c2)cc1 [Compound 370] | ≤ 40% | ≤ 76.5% |
| CN(C)C[C@H](O)C(=O)N[C@H](C#N)Cc1ccc(-c2ccc3nnn(C)c3c2)cc1 [Compound 371] | ≤ 40% | ≤ 76.5% |
| CN(C)C[C@H](O)C(=O)N[C@H](C#N)Cc1ccc(-c2cnc3c(n2)CCCC3)cc1 [Compound 372] | ≤ 40% | ≤ 76.5% |
| CN(C)C[C@H](O)C(=O)N[C@H](C#N)Cc1ccc(-c2ccc3cnn(C)c3c2)cc1F [Compound 374] | ≤ 40% | ≤ 76.5% |
| CN(C)C[C@H](O)C(=O)N[C@H](C#N)Cc1ccc(-c2cnc3c(n2)CCCC3)cc1F [Compound 376] | ≤ 40% | ≤ 76.5% |
| CN(C)C[C@H](O)C(=O)N[C@H](C#N)Cc1ccc(-c2ccc(S(=O)(=O)N3CCC3)cc2)cc1F [Compound 377] | ≤ 40% | ≤ 76.5% |
| CN(C)C[C@H](O)C(=O)N[C@H](C#N)Cc1cc2c(cc1F)-c1ccc(F)cc1CO2 [Compound 378] | ≤ 40% | ≤ 76.5% |
| CN(C)C[C@](C)(O)C(=O)NC(C#N)Cc1cc2c(cc1F)-c1cc(C3COC3)c(F)cc1CO2 (stereo partly shown) [Compound 379] | ≤ 40% | ≤ 76.5% |
| CN(C)C[C@](C)(O)C(=O)N[C@H](C#N)Cc1cc2c(cc1F)-c1ccc(C#N)cc1CO2 [Compound 380] | ≤ 40% | ≤ 76.5% |
| CN(C)C[C@](C)(O)C(=O)NC(C#N)Cc1cc2c(cc1F)-c1cc3c(cc1CO2)oc(=O)n3C (stereo partly shown) [Compound 381] | 40 to 66.7% | 76.5 to 93.9% |
| CN(C)C[C@](C)(O)C(=O)NC(C#N)Cc1cc2c(cc1F)-c1cc(C#N)ccc1CO2 (stereo partly shown) [Compound 382] | ≤ 40% | ≤ 76.5% |
| CN(C)C[C@](C)(O)C(=O)NC(C#N)Cc1cc2c(cc1F)-c1ccc3oc(=O)n(C)c3c1CO2 (stereo partly shown) [Compound 383] | ≤ 40% | ≤ 76.5% |
| CN(C)C[C@](C)(O)C(=O)N[C@H](C#N)Cc1ccc(-c2ccc3c(c2)C2(CC3)CCN(C)CC2)cc1 [Compound 384] | ≥ 66.7% | ≤ 76.5% |
| CN(C)C[C@](C)(O)C(=O)N[C@H](C#N)Cc1ccc(-c2ccc3c(c2)C2(CCCN(C)C2)C(=O)N3C)cc1 (stereo partly shown) [Compound 385] | ≥ 66.7% | ≥ 93.9% |
| CN(C)CCn1c(=O)oc2ccc(-c3ccc(C[C@@H](C#N)NC(=O)[C@@](C)(O)CN(C)C)cc3)cc21 [Compound 386] | ≥ 66.7% | 76.5 to 93.9% |
| CN(C)C[C@](C)(O)C(=O)N[C@H](C#N)Cc1ccc(-c2ccc3c(c2)C2(CN(C)C2)OC3=O)cc1 [Compound 388] | ≥ 66.7% | ≥ 93.9% |
| CCN1C(=O)Cc2ccc(-c3ccc(C[C@@H](C#N)NC(=O)[C@@](C)(O)CN(C)C)cc3)cc21 [Compound 389] | 40 to 66.7% | 76.5 to 93.9% |
| CN(C)C[C@](C)(O)C(=O)N[C@H](C#N)Cc1ccc(-c2ccc3c(c2)C2(CCN(C)C2)OC3=O)cc1 (stereo partly shown) [Compound 390] | ≥ 66.7% | ≤ 76.5% |
| CN(C)C[C@](C)(O)C(=O)N[C@H](C#N)Cc1ccc(-c2ccc3cnn(C4CCN(C)CC4)c3c2)cc1 [Compound 391] | ≥ 66.7% | ≤ 76.5% |
| CN(C)C[C@](C)(O)C(=O)N[C@H](C#N)Cc1ccc(-c2ccc3c(c2)C2(CCN(C4COC4)CC2)OC3)cc1 [Compound 392] | ≥ 66.7% | ≤ 76.5% |

| Structure (SMILES) | inhibition at 0.01 µM [1] | inhibition at 0.005 µM [2] |
| --- | --- | --- |
| CN(C)C[C@](C)(O)C(=O)N[C@H](C#N)Cc1ccc(-c2ccc3oc(=O)n(CCN4CCOCC4)c3c2)cc1 [Compound 393] | 40 to 66.7% | ≤ 76.5% |
| CN(C)C[C@](C)(O)C(=O)N[C@H](C#N)Cc1ccc(-c2ccc(CN3CCN(C)CC3)cc2)cc1 [Compound 394] | ≤ 40% | 76.5 to 93.9% |
| CN(C)C[C@](C)(O)C(=O)N[C@H](C#N)Cc1ccc(-c2ccc3oc(=O)n(C)c3c2)cc1 [Compound 395] | ≥ 66.7% | 76.5 to 93.9% |
| CN(C)C[C@](C)(O)C(=O)N[C@H](C#N)Cc1ccc(-c2ccc3c(n2)CCCN3)cc1 [Compound 396] | ≤ 40% | ≤ 76.5% |
| CN(C)C[C@](C)(O)C(=O)N[C@H](C#N)Cc1ccc(-c2ccc3c(c2)C2(CC3)CCN(C)CC2)cc1F [Compound 397] | ≥ 66.7% | ≤ 76.5% |
| CN(C)C[C@](C)(O)C(=O)N[C@H](C#N)Cc1ccc(-c2ccc3c(c2)C2(CCCN(C)C2)C(=O)N3C)cc1F (stereo partly shown) [Compound 398] | ≥ 66.7% | ≥ 93.9% |
| CN(C)CCn1c(=O)oc2ccc(-c3ccc(C[C@@H](C#N)NC(=O)[C@@](C)(O)CN(C)C)c(F)c3)cc21 [Compound 399] | ≥ 66.7% | ≥ 93.9% |
| Cc1cn2cc(-c3ccc(C[C@@H](C#N)NC(=O)[C@@](C)(O)CN(C)C)c(F)c3)cc2c(C)n1 [Compound 400] | 40 to 66.7% | 76.5 to 93.9% |
| CN(C)C[C@](C)(O)C(=O)N[C@H](C#N)Cc1ccc(-c2ccc3c(c2)C2(CN(C)C2)OC3=O)cc1F [Compound 401] | ≥ 66.7% | ≥ 93.9% |
| CCN1C(=O)Cc2ccc(-c3ccc(C[C@@H](C#N)NC(=O)[C@@](C)(O)CN(C)C)c(F)c3)cc21 [Compound 402] | ≥ 66.7% | 76.5 to 93.9% |
| CN(C)C[C@](C)(O)C(=O)N[C@H](C#N)Cc1ccc(-c2ccc3c(c2)C2(CCN(C)C2)OC3=O)cc1F (stereo partly shown) [Compound 403] | ≥ 66.7% | 76.5 to 93.9% |
| CN(C)C[C@](C)(O)C(=O)N[C@H](C#N)Cc1ccc(-c2ccc3cnn(C4CCN(C)CC4)c3c2)cc1F [Compound 404] | ≥ 66.7% | ≤ 76.5% |
| CN(C)C[C@](C)(O)C(=O)N[C@H](C#N)Cc1ccc(-c2ccc3c(c2)C2(CCN(C4COC4)CC2)OC3)cc1F [Compound 405] | ≥ 66.7% | 76.5 to 93.9% |
| CN(C)C[C@](C)(O)C(=O)N[C@H](C#N)Cc1ccc(-c2ccc3oc(=O)n(CCN4CCOCC4)c3c2)cc1F [Compound 406] | ≥ 66.7% | 76.5 to 93.9% |
| CN(C)C[C@](C)(O)C(=O)N[C@H](C#N)Cc1ccc(-c2ccc(CN3CCN(C)CC3)cc2)cc1F [Compound 407] | 40 to 66.7% | ≥ 93.9% |
| CN(C)C[C@](C)(O)C(=O)N[C@H](C#N)Cc1ccc(-c2ccc3oc(=O)n(C)c3c2)cc1F [Compound 408] | ≥ 66.7% | ≥ 93.9% |
| CN(C)C[C@](C)(O)C(=O)N[C@H](C#N)Cc1ccc(-c2ccc3c(n2)CCCN3)cc1F [Compound 409] | ≥ 66.7% | 76.5 to 93.9% |
| COCCN(C)CCn1c(=O)oc2ccc(-c3ccc(C[C@@H](C#N)NC(=O)[C@@](C)(O)CN(C)C)c(F)c3)cc21 [Compound 410] | ≥ 66.7% | ≥ 93.9% |
| CN(C)C[C@](C)(O)C(=O)N[C@H](C#N)Cc1ccc(-c2ccc3nnn(C)c3c2)cc1 [Compound 413] | 40 to 66.7% | 76.5 to 93.9% |
| CN(C)C[C@](C)(O)C(=O)N[C@H](C#N)Cc1ccc(-c2cnc3c(n2)CCCC3)cc1 [Compound 414] | ≤ 40% | ≤ 76.5% |
